Measured values from patent publication US20250066423A1, “SESTRIN-MAPK COMPLEX INHIBITORS” (Sentcell Ltd, priority 2021, published 2025).
Peptide text beside a SMILES is read from it.

Tests used:
[1] = biological target: T1, sestrin-AMPK interaction (Homo sapiens, UniProt P58004); assay: ELISA coupled to sestrin 2 immunoprecipitation; assay type: cell-based
T1 construct: endogenous in cells; host or cells: primary CD4+ T cells from PBMCs of healthy donors
T1 sequence (P58004 1-480): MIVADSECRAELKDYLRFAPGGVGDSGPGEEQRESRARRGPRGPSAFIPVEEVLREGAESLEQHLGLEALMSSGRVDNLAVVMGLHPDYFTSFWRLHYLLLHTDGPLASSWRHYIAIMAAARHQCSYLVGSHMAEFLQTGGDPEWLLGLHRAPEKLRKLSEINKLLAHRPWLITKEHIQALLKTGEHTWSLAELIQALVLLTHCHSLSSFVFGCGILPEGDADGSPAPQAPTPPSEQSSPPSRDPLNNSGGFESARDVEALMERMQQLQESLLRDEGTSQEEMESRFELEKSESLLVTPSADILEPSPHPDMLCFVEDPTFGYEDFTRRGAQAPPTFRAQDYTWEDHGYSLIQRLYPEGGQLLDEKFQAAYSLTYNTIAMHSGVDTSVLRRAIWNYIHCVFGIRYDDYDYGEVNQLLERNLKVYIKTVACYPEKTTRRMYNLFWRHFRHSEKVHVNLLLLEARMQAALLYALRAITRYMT
Protocol: (§1) FIG. 6 illustrates sMAC disruption by DOS46L. (A) CD4+ T cells were purified from PBMCs from healthy donors and treated with DOS46L (10 uM) for the indicated time points. The binding of AMPK to Sestrin 2 was quantified against the total level of Sestrin 2 immunoprecipitated and detected by ELISA. IgG immunoprecipitates served as background control. (B) Cells were pre-treated with proteasome-inhibitor MG-132 (10 uM) for 30 min and subsequently treated with DOS46L (10 uM) for 4 hours. Cells were harvested for immunoblot analysis or proceeded to immunoprecipitation. Levels of Sestrin 2, p38, and AMPK were evaluated by immunoblotting. H3 was used as a loading control. Representative images of 3 experiments are shown. (C) Immunoblot levels of Ubiquitin, Sestrin 2 and Histone 3 in Sestrin 2 immunoprecipitates and their lysates were analysed. Representative images are shown (top). The mean values (bottom) of ubiquitinated proteins in Sestrin 2 immunoprecipitates are shown. Results are presented as a mean±SD of 4 repeated experiments. Student's T-test was used to analyse the data. **p<0.01
(§2) • 1. Cell pellet was lysed with 100 μL of denaturing lysis buffer • 2. Then mixed well by vortexing vigorously for 2-3 sec at maximum speed. • 3. Samples were then boiled at 95° C. for 5 min. • 4. Samples were then diluted 900 μl of non-denaturing lysis buffer and mixed gently. • 5. […]

[2] = test system: influenza specific antibody titres; assay type: in vivo; conditions: old mice, single dose along with the vaccine, 2, 4 and 8 weeks after vaccination, versus young mice
[3] = biological target: T2, Sestrin 2 (Homo sapiens, UniProt P58004); assay: Proteasomal degradation and ubiquitination of sestrin 2 (MG-132 pre-treatment, immunoprecipitation, immunoblot); assay type: cell-based; set-up: endogenous in cells; host or cells: primary CD4+ T cells from PBMCs of healthy donors
T2 sequence (P58004 1-480): T1 sequence (P58004 1-480)
Protocol: as §1, §2

Compound: CC[C@H](C)[C@@H]1NC(=O)[C@H](Cc2ccccc2)NC(=O)[C@H](C)NC(=O)[C@H](C(C)C)NC(=O)[C@@H]2CCCN2C1=O [DOS46L] (cyclo(AFIPV))
- binding of AMPK to Sestrin 2 ([1]; CD4+ T cells, 10 uM, 1 or 2 hours of treatment): decreased
- sestrin-AMPK interaction ([1]; compound added directly to the sestrin immunoprecipitates in vitro): disrupted
- influenza specific antibody titres [2]: completely restored
- inhibition of sestrin and AMPK after proteasome inhibitor pre-treatment ([3]; MG-132 10 uM 30 min, then DOS46L 10 uM 4 hours): vanished
- ubiquitinated sestrin 2 immunoprecipitated ([3]; T cells exposed to DOS46L 10 uM, 4 hours): increased amount
